Reference: patent US12077503B2, “Substituted cyclic amides and their use as herbicides” (FMC CORPORATION, priority 2015, dated 2024)
Where two headings read alike, the source gives them in different places.

Assays:
Type in all cases: in vivo
[1] = system: giant foxtail (Setaria faberii); assay: Test A preemergence; conditions: Setaria faberi, pre-emergence, 240 h; for pest or weed control at 125 g/ha: 125 g ai/ha; for pest or weed control at 500 g/ha: 500 g ai/ha
Method in brief: (§1)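 Treatment is preemergence as a directed soil spray after planting, or postemergence at the one- to two-leaf stage, with test chemical in a non-phytotoxic solvent mixture plus surfactant. Plants stay in the greenhouse about 10 d before visual injury scoring on a 0 to 100 scale versus untreated controls.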

[2] = system: Galium (catchweed bedstraw, Galium aparine); assay: Test A postemergence; conditions: Galium, post-emergence, 240 h, postemergence; for pest or weed control at 125 g/ha: 125 g ai/ha; for pest or weed control at 500 g/ha: 500 g ai/ha, 0 to 100 scale, 0 is no effect, 100 is complete control
Method in brief: as §1

Kochia (Kochia scoparia) = assay: Test A postemergence; conditions: Bassia scoparia, post-emergence, 240 h, postemergence; for pest or weed control at 125 g/ha: 125 g ai/ha; for pest or weed control at 500 g/ha: 500 g ai/ha, 0 to 100 scale, 0 is no effect, 100 is complete control
Method in brief: as §1

[3] = system: barnyardgrass (Echinochloa crus-galli); assay: Test A postemergence; conditions: Echinochloa crus-galli, post-emergence, 240 h, postemergence; for pest or weed control at 125 g/ha: 125 g ai/ha; for pest or weed control at 500 g/ha: 500 g ai/ha, 0 to 100 scale, 0 is no effect, 100 is complete control
Method in brief: as §1

[4] = system: blackgrass (Alopecurus myosuroides); assay: Test A postemergence; conditions: Alopecurus myosuroides, post-emergence, 240 h, postemergence; for pest or weed control at 125 g/ha: 125 g ai/ha; for pest or weed control at 500 g/ha: 500 g ai/ha, 0 to 100 scale, 0 is no effect, 100 is complete control
Method in brief: as §1

corn (Zea mays) = assay: Test A postemergence; conditions: Zea mays, post-emergence, 240 h, postemergence; for plant injury at 125 g/ha: 125 g ai/ha; for plant injury at 500 g/ha: 500 g ai/ha, 0 to 100 scale, 0 is no effect, 100 is complete control
Method in brief: as §1

[5] = system: giant foxtail (Setaria faberii); assay: Test A postemergence; conditions: Setaria faberi, post-emergence, 240 h, postemergence; for pest or weed control at 125 g/ha: 125 g ai/ha; for pest or weed control at 500 g/ha: 500 g ai/ha, 0 to 100 scale, 0 is no effect, 100 is complete control
Method in brief: as §1

[6] = system: pigweed (Amaranthus retroflexus); assay: Test A postemergence; conditions: Amaranthus retroflexus, post-emergence, 240 h, postemergence; for pest or weed control at 125 g/ha: 125 g ai/ha; for pest or weed control at 500 g/ha: 500 g ai/ha, 0 to 100 scale, 0 is no effect, 100 is complete control
Method in brief: as §1

[7] = system: ragweed (common ragweed, Ambrosia elatior); assay: Test A postemergence; conditions: Ambrosia artemisiifolia, post-emergence, 240 h, postemergence; for pest or weed control at 125 g/ha: 125 g ai/ha; for pest or weed control at 500 g/ha: 500 g ai/ha, 0 to 100 scale, 0 is no effect, 100 is complete control
Method in brief: as §1

[8] = system: ryegrass, Italian (Italian ryegrass, Lolium multiflorum); assay: Test A postemergence; conditions: Lolium multiflorum, post-emergence, 240 h, postemergence; for pest or weed control at 125 g/ha: 125 g ai/ha; for pest or weed control at 500 g/ha: 500 g ai/ha, 0 to 100 scale, 0 is no effect, 100 is complete control
Method in brief: as §1

[9] = system: wheat (Triticum aestivum); assay: Test A postemergence; conditions: Triticum aestivum, post-emergence, 240 h, postemergence; for plant injury at 125 g/ha: 125 g ai/ha; for plant injury at 500 g/ha: 500 g ai/ha, 0 to 100 scale, 0 is no effect, 100 is complete control
Method in brief: as §1

[10] = system: barnyardgrass (Echinochloa crus-galli); assay: Test B flooded paddy test; conditions: Echinochloa crus-galli, 250 g ai/ha, Flood; 0 to 100 scale where 0 is no effect and 100 is complete control; read-out: Barnyardgrass plant response rating
Method in brief: (§2)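 Response scored visually against untreated controls, 0 = no effect and 100 = complete control, 13–15 d after treatment in the greenhouse. Compounds added to paddy water held 3 cm above soil surface. Treatment given at 2-leaf stage.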

[11] = system: ducksalad (Heteranthera limosa); assay: Test B flooded paddy test; conditions: Heteranthera limosa, 250 g ai/ha, Flood; 0 to 100 scale where 0 is no effect and 100 is complete control; read-out: Ducksalad plant response rating
Method in brief: as §2

rice (Oryra sativa) = assay: Test B flooded paddy test; conditions: Oryza sativa, 250 g ai/ha, Flood; 0 to 100 scale where 0 is no effect and 100 is complete control; read-out: Rice plant response rating
Method in brief: as §2

[12] = system: sedge, umbrella (small-flower umbrella sedge, Cyperus difformis); assay: Test B flooded paddy test; conditions: Cyperus difformis, 250 g ai/ha, Flood; 0 to 100 scale where 0 is no effect and 100 is complete control; read-out: Sedge, Umbrella plant response rating
Method in brief: as §2

[13] = read-out: Galium plant response rating
[14] = read-out: Kochia plant response rating
[15] = read-out: Barnyardgrass plant response rating
[16] = read-out: Blackgrass plant response rating
[17] = read-out: Corn plant response rating
[18] = read-out: Foxtail, Giant plant response rating
[19] = read-out: Pigweed plant response rating
[20] = read-out: Ragweed plant response rating
[21] = read-out: Ryegrass, Italian plant response rating
[22] = read-out: Wheat plant response rating

Structure (SMILES)	pest or weed control at 500 g/ha [2, 13] [%]	pest or weed control at 500 g/ha (Kochia (Kochia scoparia); [14]) [%]	pest or weed control at 500 g/ha [3, 15] [%]	pest or weed control at 500 g/ha [4, 16] [%]	plant injury at 500 g/ha (corn (Zea mays); [17]) [%]	pest or weed control at 500 g/ha [5, 18] [%]	pest or weed control at 500 g/ha [6, 19] [%]	pest or weed control at 500 g/ha [7, 20] [%]	pest or weed control at 500 g/ha [8, 21] [%]	plant injury at 500 g/ha [9, 22] [%]	pest or weed control at 250 g/ha [10] [%]	pest or weed control at 250 g/ha [11] [%]	pest or weed control at 250 g/ha (rice (Oryra sativa)) [%]	pest or weed control at 250 g/ha [12] [%]	other results
CCc1ccc([C@H]2CNC(=O)[C@@H]2C(=O)Nc2cccc(F)c2C)cc1 [Compound 1177]	50	0	90	70	40	70	0	0	40	30	70	95	20	0	pest or weed control at 125 g/ha ([1]; preemergence, 0 to 100 scale where 0 is no effect and 100 is complete control, approx. 10 d, read-out: Foxtail, Giant plant response rating): 70%; pest or weed control at 500 g/ha ([1]; preemergence, 0 to 100 scale where 0 is no effect and 100 is complete control, read-out: Foxtail, Giant plant response rating): 100%; pest or weed control at 125 g/ha ([2]; visual injury vs untreated controls after approx. 10 d, 0 = no effect, 100 = complete control, read-out: Galium plant response rating (0 to 100 scale)): 20%; pest or weed control at 125 g/ha (Kochia (Kochia scoparia); visual injury vs untreated controls after approx. 10 d, 0 = no effect, 100 = complete control, read-out: Kochia plant response rating (0 to 100 scale)): 0%; pest or weed control at 125 g/ha ([3]; visual injury vs untreated controls after approx. 10 d, 0 = no effect, 100 = complete control, read-out: Barnyardgrass plant response rating (0 to 100 scale)): 70%; pest or weed control at 125 g/ha ([4]; visual injury vs untreated controls after approx. 10 d, 0 = no effect, 100 = complete control, read-out: Blackgrass plant response rating (0 to 100 scale)): 60%; plant injury at 125 g/ha (corn (Zea mays); visual injury vs untreated controls after approx. 10 d, 0 = no effect, 100 = complete control, read-out: Corn plant response rating (0 to 100 scale)): 20%; pest or weed control at 125 g/ha ([5]; visual injury vs untreated controls after approx. 10 d, 0 = no effect, 100 = complete control, read-out: Foxtail, Giant plant response rating (0 to 100 scale)): 50%; pest or weed control at 125 g/ha ([6]; visual injury vs untreated controls after approx. 10 d, 0 = no effect, 100 = complete control, read-out: Pigweed plant response rating (0 to 100 scale)): 0%; pest or weed control at 125 g/ha ([7]; visual injury vs untreated controls after approx. 10 d, 0 = no effect, 100 = complete control, read-out: Ragweed plant response rating (0 to 100 scale)): 0%; pest or weed control at 125 g/ha ([8]; visual injury vs untreated controls after approx. 10 d, 0 = no effect, 100 = complete control, read-out: Ryegrass, Italian plant response rating (0 to 100 scale)): 40%; plant injury at 125 g/ha ([9]; visual injury vs untreated controls after approx. 10 d, 0 = no effect, 100 = complete control, read-out: Wheat plant response rating (0 to 100 scale)): 20%
CCc1cccc([C@H]2CCNC(=O)[C@@H]2C(=O)Nc2cccc(F)c2F)c1 [Compound 1058]	60	20	90	40	30	0	0	90	0	0	35	0	25	0	pest or weed control at 125 g/ha ([1]; Preemergence, visual injury rating after approximately 10 d, read-out: Foxtail, Giant plant response rating (0 to 100 scale, 0 is no effect, 100 is complete control)): 90%; pest or weed control at 500 g/ha ([1]; preemergence, visual injury rating about 10 d after treatment, 0 to 100 scale (0 no effect, 100 complete control), read-out: Foxtail, Giant plant response rating): 100%; pest or weed control at 125 g/ha ([2]; visual injury on 0 to 100 scale (0 no effect, 100 complete control), approx. 10 d, read-out: Galium plant response rating): 50%; pest or weed control at 125 g/ha (Kochia (Kochia scoparia); visual injury on 0 to 100 scale (0 no effect, 100 complete control), approx. 10 d, read-out: Kochia plant response rating): 0%; pest or weed control at 125 g/ha ([3]; visual injury on 0 to 100 scale (0 no effect, 100 complete control), approx. 10 d, read-out: Barnyardgrass plant response rating): 70%; pest or weed control at 125 g/ha ([4]; visual injury on 0 to 100 scale (0 no effect, 100 complete control), approx. 10 d, read-out: Blackgrass plant response rating): 30%; plant injury at 125 g/ha (corn (Zea mays); visual injury on 0 to 100 scale (0 no effect, 100 complete control), approx. 10 d, read-out: Corn plant response rating): 0%; pest or weed control at 125 g/ha ([5]; visual injury on 0 to 100 scale (0 no effect, 100 complete control), approx. 10 d, read-out: Foxtail, Giant plant response rating): 0%; pest or weed control at 125 g/ha ([6]; visual injury on 0 to 100 scale (0 no effect, 100 complete control), approx. 10 d, read-out: Pigweed plant response rating): 0%; pest or weed control at 125 g/ha ([7]; visual injury on 0 to 100 scale (0 no effect, 100 complete control), approx. 10 d, read-out: Ragweed plant response rating): 80%; pest or weed control at 125 g/ha ([8]; visual injury on 0 to 100 scale (0 no effect, 100 complete control), approx. 10 d, read-out: Ryegrass, Italian plant response rating): 0%; plant injury at 125 g/ha ([9]; visual injury on 0 to 100 scale (0 no effect, 100 complete control), approx. 10 d, read-out: Wheat plant response rating): 0%
